Our source for the EC50 values is US12180226B2, “Spirotricycle RIPK1 inhibitors and methods of uses thereof” (Merck Sharp & Dohme LLC, priority 2021, dated 2024).

In general, EC50 refers to the concentration that produces a half-maximal response.

Molecules are shown by their SMILES. Where a name gives a salt, the structure may show the parent alone. Read-outs that look alike come from different tables or passages of the source.

The target of the experiment is RIPK1 (recombinant GST-RIPK1 kinase domain, residues 1-327) (Homo sapiens (Human), UniProt Q13546). The experiment is described as follows: RIPK1-ADP-Glo Enzymatic Assay. The experiment is classed as biochemical. The conditions noted are these: 25 nM GST-RIPK1, 300 μM ATP, assay lower limit ~25 nM. The method, boiled down: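 Using dephosphorylated MBP (3 μM) as substrate and 300 μM ATP, 25 nM baculovirus-produced enzyme was reacted for 150 min after a 30-min compound pre-incubation. Luminescent ADP detection followed; lower confidence limit ~25 nM.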
(In ADP-Glo the light output rises with the ADP produced.)

Setting [1] is: ADP-Glo, read-out: RIPK1 V0 Ec50.

RIPK1 (recombinant GST-RIPK1 kinase domain, residues 1-327), sequence (Q13546 1-327): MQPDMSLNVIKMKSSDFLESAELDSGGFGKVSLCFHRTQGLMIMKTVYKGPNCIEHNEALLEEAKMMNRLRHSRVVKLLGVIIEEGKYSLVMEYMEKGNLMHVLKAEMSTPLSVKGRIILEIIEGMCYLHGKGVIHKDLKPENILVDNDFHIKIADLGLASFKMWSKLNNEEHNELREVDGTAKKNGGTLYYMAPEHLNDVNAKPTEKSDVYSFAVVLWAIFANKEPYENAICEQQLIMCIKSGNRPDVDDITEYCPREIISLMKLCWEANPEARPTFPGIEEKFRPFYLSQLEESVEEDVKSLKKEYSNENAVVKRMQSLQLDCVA

On to `O=C(c1ccc(F)cc1F)N1CCC2(CC1)O[C@@H]1CC[C@@H](c3ccccc3)N1C2=O` [Example 5.11, (5′S,7a′R)-1-(2,4-difluoro-benzene-1-carbonyl)-5′-phenyltetrahydro-3′H-spiro[piperidine-4,2′-pyrrolo[2,1-b][1,3]oxazol]-3′-one], for which, under setting [1], the concentration giving a half-maximal response (EC50) was less than 0.025 µM.
For the compound `CC1CC2(CCN1C(=O)c1ncccc1F)O[C@@H]1CC[C@@H](c3cccc(F)c3)N1C2=O` (stereo partly drawn) [Example 6.159, (4R,5′S,7a′R)-5′-(3-fluorophenyl)-1-(3-fluoropyridine-2-carbonyl)-2-methyl-tetrahydro-3′H-spiro [piperidine-4,2′-pyrrolo[2,1-b][1,3]oxazol]-3′-one], the half-maximal effective concentration (EC50) under setting [1] came out at 0.826 µM.
With `O=C1N2[C@@H](CC[C@H]2c2cc(F)cc(F)c2)OC12CN(c1ccnc3c(F)cnn13)C2` [Example 4.117, (5′S,7a′R)-5′-(3,5-difluorophenyl)-1-(3-fluoropyrazolo[1,5-a]pyrimidin-7-yl)tetrahydro-3′H-spiro[azetidine-3,2′-pyrrolo[2,1-b]oxazol]-3′-one], the half-maximal effective concentration (EC50) under setting [1] was less than 0.025 µM.
On the same count and under the same terms, the same measure for `O=C(c1ccc(Br)cn1)N1CCC2(CC1)O[C@@H]1CC[C@@H](c3cc(F)cc(F)c3)N1C2=O` [Example 6.100, (5′S,7a′R)-1-(5-bromo-pyridine-2-carbonyl)-5′-(3,5-difluorophen-yl)tetrahydro-3′H-spiro[piperidine-4,2′-pyrrolo[2,1-b][1,3]-oxazol]-3′-one]: 0.0667 µM; for `O=C1N2[C@@H](CC[C@H]2c2ccccc2)OC12CCN(c1ccc(-c3nc4ccccc4[nH]3)cn1)CC2` [Example 4.166, (5′S,7a′R)-1-[5-(1H-benzimidazol-2-yl)pyridin-2-yl]-5′-phenyltetrahydro-3′H-spiro[piperidine-4,2′-pyrrolo[2,1-b] [1,3]oxazol]-3′-one]: 0.0564 µM.
On the same count and under the same terms, the same measure for `COC(=O)c1cnc(N2CCC3(CC2)O[C@@H]2CC[C@@H](c4ccccc4)N2C3=O)c(OC)c1` [Example 4.197, methyl 5-methoxy-6-[(5′S,7a′R)-3′-oxo-5′-phenyltetrahydro-1H,3′H-spiro[piperidine-4,2′-pyrrolo[2,1-b] [1,3]oxazol]-1-yl]pyridine-3-carboxylate]: 0.0251 µM; for `CC1CN(C(=O)c2ccccc2)CCC12O[C@@H]1CC[C@@H](c3cc(F)cc(F)c3)N1C2=O` (single isomer, unassigned) [Example 2.7, (3[R or S],4[S or R], 5′S,7a′R)-1-benzoyl-5′-(3,5-difluorophenyl)-3-methyltetrahydro-3′H-spiro[piperidine-4,2′-pyrrolo[2,1-b]oxazol]-3′-one]: 0.0431 µM.
As for `CC1CN(c2ncnc3ccnn23)CCC12O[C@@H]1CC[C@@H](c3cc(F)cc(F)c3)N1C2=O` (stereo partly drawn) [Example 4.267, (5′S,7a′R)-5′-(3,5-difluorophenyl)-3-methyl-1-(pyrazolo[1,5-a] [1,3,5]triazin-4-yl)tetrahydro-3′H-spiro[piperidine-4,2′-pyrrolo[2,1-b] [1,3]oxazol]-3′-one], under setting [1], the EC50 was less than 0.025 µM.
For `COC(=O)c1ccc(N2CCC3(CC2)O[C@@H]2CC[C@@H](c4ccccc4)N2C3=O)nc1` [Example 4.202, methyl 6-[(5′S,7a′R)-3′-oxo-5′-phenyltetrahydro-1H,3′H-spiro[piperidine-4,2′-pyrrolo[2,1-b] [1,3]oxazol]-1-yl]pyridine-3-carboxylate], the EC50 under setting [1] turned out to be 0.0385 µM.
Regarding `Cc1nc(N2CCC3(CC2)O[C@@H]2CC[C@@H](c4ccccc4)N2C3=O)ncc1-c1ncco1` [Example 21.11, (5′S,7a′R)-1-[4-methyl-5-(1,3-oxazol-2-yl)pyrimidin-2-yl]-5′-phenyltetrahydro-3′H-spiro[piperidine-4,2′-pyrrolo[2,1-b][1,3]oxazol]-3′-one], the EC50 under setting [1] is less than 0.025 µM.
`Cc1cc2nccc(N3CCC4(CC3)O[C@@H]3CC[C@@H](c5cc(F)cc(F)c5)N3C4=O)n2n1` [Example 4.85, (5′S,7a′R)-5′-(3,5-difluorophenyl)-1-(2-methylpyrazolo[1,5-a]pyrimidin-7-yl)tetrahydro-3′H-spiro[piperidine-4,2′-pyrrolo[2,1-b]oxazol]-3′-one, TFA salt]: the 50% effective concentration (EC50) under setting [1] turned out to be 0.0634 µM.
As for `CC1CC2(CCN1C(=O)c1ccccc1)O[C@@H]1CC[C@@H](c3cc(F)cc(F)c3)N1C2=O` (stereo partly drawn) [Example 6.106, (4R,5′S,7a′R)-1-(benzenecarbonyl)-5′-(3,5-difluorophenyl)-2-methyltetrahydro-3′H-spiro[piperidine-4,2′-pyrrolo[2,1-b] [1,3]oxazol]-3′-one], the EC50 under setting [1] came to 0.202 µM.
Turning to `O=C(c1ccccc1)N1CCC2(CC1)O[C@@H]1CC[C@@H](c3cc(F)ccc3F)N1C2=O` [Example 7.2, (5′S,7a′R)-1-(benzenecarbonyl)-5′-(2,5-difluorophenyl)tetrahydro-3′H-spiro[piperidine-4,2′-pyrrolo[2,1-b][1,3]oxazol]-3′-one], under setting [1], the EC50 is less than 0.025 µM.
Consider `O=C1N2[C@@H](CC[C@H]2c2cc(F)cc(F)c2)OC12CCN(c1nccn3cncc13)CC2` [Example 13.14, (5′S,7a′R)-5′-(3,5-difluorophenyl)-1-(imidazo[1,5-a]pyrazin-8-yl)tetrahydro-3′H-spiro[piperidine-4,2′-pyrrolo[2,1-b]oxazol]-3′-one, TFA salt], for which the EC50 under setting [1] is 0.487 µM.
In the case of `O=C(c1ccc(F)cn1)N1CCC2(CC1)O[C@@H]1CC[C@@H](c3cc(F)cc(F)c3)N1C2=O` [Example 6.14, (5′S,7a′R)-5′-(3,5-difluorophenyl)-1-(5-fluoropyridine-2-carbonyl)tetrahydro-3′H-spiro[piperidine-4,2′-pyrrolo[2,1-b] [1,3]oxazol]-3′-one], the half-maximal effective concentration (EC50) under setting [1] turned out to be 0.03 µM.
On to `CSc1nc(N2CCC3(CC2)O[C@@H]2CC[C@@H](c4cc(F)cc(F)c4)N2C3=O)n2nccc2n1` [Example 4.86, (5′S,7a′R)-5′-(3,5-difluorophenyl)-1-(2-(methylthio)pyrazolo [1,5-a][1,3,5]triazin-4-yl)tetrahydro-3′H-spiro[piperidine-4,2′-pyrrolo[2,1-b]oxazol]-3′-one, TFA salt], for which the EC50 under setting [1] is 0.269 µM.
As for `O=C1N2[C@@H](CC[C@H]2c2ccccc2)OC12CCN(c1cc(-n3cccn3)ncn1)CC2` [Example 4.174, (5′S,7a′R)-5′-phenyl-1-[6-(1H-pyrazol-1-yl)pyrimidin-4-yl]tetrahydro-3′H-spiro[piperidine-4,2′-pyrrolo[2,1-b] [1,3]oxazol]-3′-one], the half-maximal effective concentration (EC50) under setting [1] is less than 0.025 µM.
As for `CC(=O)c1ccc(N2CCC3(CC2)O[C@@H]2CC[C@@H](c4ccccc4)N2C3=O)n2ncnc12` [Example 4.270, (5′S,7a′R)-1-(8-acetyl[1,2,4]triazolo[1,5-a]pyridin-5-yl)-5′-phenyltetrahydro-3′H-spiro[piperidine-4,2′-pyrrolo[2,1-b] [1,3]oxazol]-3′-one], the EC50 under setting [1] was less than 0.025 µM.
The same measure, in the same setting: the figure for `Cc1nc(N2CCC3(CC2)O[C@@H]2CC[C@@H](c4cc(F)cc(F)c4)N2C3=O)ncc1OC(F)F` [Example 4.58, (5′S,7a′R)-1-[5-(difluoromethoxy)-4-methylpyrimidin-2-yl]-5′-(3,5-difluorophenyl)tetrahydro-3′H-spiro[piperidine-4,2′-pyrrolo[2,1-b] [1,3]oxazol]-3′-one] is 0.0459 µM; for `O=C1N2[C@@H](CC[C@H]2c2ccccc2)OC12CCN(c1nccc(C3CC3)n1)CC2` [Example 11.12, (5′S,7a′R)-1-(4-cyclopropylpyrimidin-2-yl)-5′-phenyltetrahydro-3′H-spiro[piperidine-4,2′-pyrrolo[2,1-b][1,3]oxazol]-3′-one] it is 0.0977 µM; for `CC1CN(c2ccnc3ccnn23)CCC12O[C@@H]1CC[C@@H](c3ccccc3)N1C2=O` (stereo partly drawn) [Example 4.238, (4R,5′S,7a′R)-3-methyl-5′-phenyl-1-(pyrazolo[1,5-a]pyrimidin-7-yl)tetrahydro-3′H-spiro[piperidine-4,2′-pyrrolo[2,1-b] [1,3]oxazol]-3′-one] it is less than 0.025 µM.
`O=C1N2[C@H](CC13CCN(c1ccnc4c(F)cnn14)CC3)OC[C@H]2c1ccccc1` [Example 4.120, (3′R,7a′S)-1-(3-fluoropyrazolo[1,5-a]pyrimidin-7-yl)-3′-phenyltetrahydro-5′H-spiro[piperidine-4,6′-pyrrolo[2,1-b] [1,3]oxazol]-5′-one]: the EC50 under setting [1] is less than 0.025 µM.
With `CC1(C)Cc2cccc(C(=O)N3CCC4(CC3)O[C@@H]3CC[C@@H](c5cc(F)cc(F)c5)N3C4=O)c2O1` [Example 6.32, (5′S,7a′R)-5′-(3,5-difluorophenyl)-1-(2,2-dimethyl-2,3-dihydro-1-benzo-furan-7-carbonyl)-tetrahydro-3′H-spiro [piperidine-4,2′-pyrrolo[2,1-b][1,3]oxazol]-3′-one], under setting [1], the EC50 was 0.228 µM.
Take `N#Cc1ccc(N2CCC3(CC2)O[C@@H]2CC[C@@H](c4cc(F)cc(F)c4)N2C3=O)cc1Cl` [Example 4.20, 2-chloro-4-[(5′S,7a′R)-5′-(3,5-difluorophenyl)-3′-oxotetrahydro-1H,3′H-spiro[piperidine-4,2′-pyrrolo[2,1-b] [1,3]oxazol]-1-yl]benzonitrile]: where the note is “RIPK1 V0 Ec50, ADP-Glo”, the half-maximal effective concentration (EC50) was less than 0.025 µM.
On to `CC1CC2(CCN1c1ccnc3ccnn13)O[C@@H]1CC[C@@H](c3ccccc3)N1C2=O` (stereo partly drawn) [Example 4.231, (4R,5′S,7a′R)-2-methyl-5′-phenyl-1-(pyrazolo[1,5-a]pyrimidin-7-yl)tetrahydro-3′H-spiro[piperidine-4,2′-pyrrolo[2,1-b] [1,3]oxazol]-3′-one], for which, under setting [1], the EC50 is less than 0.025 µM.
Still for that read-out and setting: the figure for `O=C(c1ccccc1)N1CCC2(CC1)SC1CC[C@H](c3cc(F)cc(F)c3)N1C2=O` (stereo partly drawn) [Example 1.21, (5′R)-1-benzoyl-5′-(3,5-difluorophenyl)tetrahydro-3′H-spiro[piperidine-4,2′-pyrrolo[2,1-b]thiazol]-3′-one] is 0.501 µM.
